Experimental data published in ChEMBL document CHEMBL5291721, “A preclinical secondary pharmacology resource illuminates target-adverse drug reaction associations of marketed drugs” (Nat Commun, 2023).

How the values were obtained:
[1] = molecular target: T1, Muscarinic acetylcholine receptor M2 (Homo sapiens, UniProt P08172)
T1 sequence (P08172 whole entry): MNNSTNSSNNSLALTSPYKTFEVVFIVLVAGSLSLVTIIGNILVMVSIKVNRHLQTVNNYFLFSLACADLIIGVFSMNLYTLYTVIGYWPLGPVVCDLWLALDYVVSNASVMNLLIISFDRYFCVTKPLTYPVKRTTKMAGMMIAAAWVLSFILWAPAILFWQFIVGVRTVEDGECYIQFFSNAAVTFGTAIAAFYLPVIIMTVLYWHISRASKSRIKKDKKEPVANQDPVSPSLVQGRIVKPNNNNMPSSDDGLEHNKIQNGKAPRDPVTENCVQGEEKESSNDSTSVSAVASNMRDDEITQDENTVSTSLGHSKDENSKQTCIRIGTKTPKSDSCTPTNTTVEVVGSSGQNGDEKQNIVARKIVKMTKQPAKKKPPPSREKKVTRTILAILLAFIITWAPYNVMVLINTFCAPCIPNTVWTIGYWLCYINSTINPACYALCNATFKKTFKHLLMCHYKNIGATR

[2] = molecular target: Histamine H3 receptor (Homo sapiens, UniProt Q9Y5N1)
[3] = molecular target: Mu-type opioid receptor (Homo sapiens, UniProt P35372)
[4] = molecular target: 5-hydroxytryptamine receptor 2B (Homo sapiens, UniProt P41595); assay type: functional, cell-based
[5] = molecular target: T2, Alpha-2A adrenergic receptor (Homo sapiens, UniProt P08913)
T2 sequence (P08913 whole entry): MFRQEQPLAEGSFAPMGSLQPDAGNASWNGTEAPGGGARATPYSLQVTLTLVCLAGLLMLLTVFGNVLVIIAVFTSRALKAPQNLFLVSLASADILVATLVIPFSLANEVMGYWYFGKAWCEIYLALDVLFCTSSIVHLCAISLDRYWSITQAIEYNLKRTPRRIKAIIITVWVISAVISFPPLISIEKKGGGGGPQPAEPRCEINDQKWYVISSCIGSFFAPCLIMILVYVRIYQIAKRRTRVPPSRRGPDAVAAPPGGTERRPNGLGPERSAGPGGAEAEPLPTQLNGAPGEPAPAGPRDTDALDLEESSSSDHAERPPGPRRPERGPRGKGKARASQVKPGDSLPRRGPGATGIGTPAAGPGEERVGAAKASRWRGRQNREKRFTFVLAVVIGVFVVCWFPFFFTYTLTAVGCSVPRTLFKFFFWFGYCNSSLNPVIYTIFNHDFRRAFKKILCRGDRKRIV

[6] = molecular target: Prothrombin (Homo sapiens, UniProt P00734); assay type: functional
[7] = molecular target: D(1A) dopamine receptor (Homo sapiens, UniProt P21728)
[8] = molecular target: cGMP-inhibited 3',5'-cyclic phosphodiesterase 3A (Homo sapiens, UniProt Q14432); assay type: functional
[9] = molecular target: Sodium-dependent dopamine transporter (Homo sapiens, UniProt Q01959)
[10] = molecular target: 3',5'-cyclic-AMP phosphodiesterase 4A (Homo sapiens, UniProt P27815); assay type: functional
[11] = molecular target: Prostaglandin G/H synthase 1 (Homo sapiens, UniProt P23219); assay type: functional
[12] = molecular target: T3, Alpha-1A adrenergic receptor (Homo sapiens, UniProt P35348); assay type: functional, cell-based
T3 sequence (P35348 whole entry): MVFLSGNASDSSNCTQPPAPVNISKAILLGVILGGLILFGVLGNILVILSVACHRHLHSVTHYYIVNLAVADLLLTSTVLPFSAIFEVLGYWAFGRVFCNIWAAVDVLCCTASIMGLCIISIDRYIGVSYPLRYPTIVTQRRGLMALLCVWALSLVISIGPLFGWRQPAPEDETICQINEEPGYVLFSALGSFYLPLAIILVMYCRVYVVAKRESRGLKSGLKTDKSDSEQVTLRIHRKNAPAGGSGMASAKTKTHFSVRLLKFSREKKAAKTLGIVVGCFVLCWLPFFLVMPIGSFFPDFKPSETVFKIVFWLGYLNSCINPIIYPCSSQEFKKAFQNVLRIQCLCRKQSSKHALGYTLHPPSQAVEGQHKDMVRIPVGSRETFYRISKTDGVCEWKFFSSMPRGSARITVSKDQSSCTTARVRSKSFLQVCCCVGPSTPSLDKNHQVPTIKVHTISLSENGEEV

[13] = molecular target: Acetylcholinesterase (Homo sapiens, UniProt P22303); assay type: functional
[14] = molecular target: T4, Progesterone receptor (Homo sapiens, UniProt P06401)
T4 sequence (P06401 whole entry): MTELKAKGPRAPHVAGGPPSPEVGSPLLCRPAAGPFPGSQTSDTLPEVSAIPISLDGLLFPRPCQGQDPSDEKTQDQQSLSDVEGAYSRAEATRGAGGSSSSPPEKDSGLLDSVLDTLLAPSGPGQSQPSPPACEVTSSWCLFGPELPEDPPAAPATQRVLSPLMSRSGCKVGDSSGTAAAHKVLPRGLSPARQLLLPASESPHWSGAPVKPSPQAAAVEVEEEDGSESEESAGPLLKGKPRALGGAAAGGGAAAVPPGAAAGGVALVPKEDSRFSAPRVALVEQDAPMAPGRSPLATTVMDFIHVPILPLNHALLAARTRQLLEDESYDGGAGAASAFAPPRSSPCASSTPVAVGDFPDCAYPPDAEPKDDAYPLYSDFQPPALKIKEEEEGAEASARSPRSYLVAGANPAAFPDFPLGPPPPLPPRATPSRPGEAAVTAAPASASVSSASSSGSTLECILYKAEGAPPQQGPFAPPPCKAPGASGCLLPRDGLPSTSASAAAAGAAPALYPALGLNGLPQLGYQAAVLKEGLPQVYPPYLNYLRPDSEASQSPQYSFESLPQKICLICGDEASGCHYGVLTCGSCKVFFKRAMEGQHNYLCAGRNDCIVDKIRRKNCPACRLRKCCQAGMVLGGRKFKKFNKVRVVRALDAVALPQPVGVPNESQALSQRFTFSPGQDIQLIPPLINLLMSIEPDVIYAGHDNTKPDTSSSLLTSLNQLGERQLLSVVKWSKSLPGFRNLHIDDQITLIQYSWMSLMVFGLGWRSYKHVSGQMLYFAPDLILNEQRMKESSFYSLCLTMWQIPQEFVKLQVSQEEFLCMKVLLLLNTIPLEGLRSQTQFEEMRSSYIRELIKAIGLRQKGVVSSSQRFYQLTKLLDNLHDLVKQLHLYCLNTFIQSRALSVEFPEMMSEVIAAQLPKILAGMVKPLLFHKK

[15] = molecular target: Voltage-gated inwardly rectifying potassium channel KCNH2 (Homo sapiens, UniProt Q12809); assay type: functional
Further: assay procedure not described here.

cGMP-inhibited 3',5'-cyclic phosphodiesterase 3A, sequence (Q14432 whole entry): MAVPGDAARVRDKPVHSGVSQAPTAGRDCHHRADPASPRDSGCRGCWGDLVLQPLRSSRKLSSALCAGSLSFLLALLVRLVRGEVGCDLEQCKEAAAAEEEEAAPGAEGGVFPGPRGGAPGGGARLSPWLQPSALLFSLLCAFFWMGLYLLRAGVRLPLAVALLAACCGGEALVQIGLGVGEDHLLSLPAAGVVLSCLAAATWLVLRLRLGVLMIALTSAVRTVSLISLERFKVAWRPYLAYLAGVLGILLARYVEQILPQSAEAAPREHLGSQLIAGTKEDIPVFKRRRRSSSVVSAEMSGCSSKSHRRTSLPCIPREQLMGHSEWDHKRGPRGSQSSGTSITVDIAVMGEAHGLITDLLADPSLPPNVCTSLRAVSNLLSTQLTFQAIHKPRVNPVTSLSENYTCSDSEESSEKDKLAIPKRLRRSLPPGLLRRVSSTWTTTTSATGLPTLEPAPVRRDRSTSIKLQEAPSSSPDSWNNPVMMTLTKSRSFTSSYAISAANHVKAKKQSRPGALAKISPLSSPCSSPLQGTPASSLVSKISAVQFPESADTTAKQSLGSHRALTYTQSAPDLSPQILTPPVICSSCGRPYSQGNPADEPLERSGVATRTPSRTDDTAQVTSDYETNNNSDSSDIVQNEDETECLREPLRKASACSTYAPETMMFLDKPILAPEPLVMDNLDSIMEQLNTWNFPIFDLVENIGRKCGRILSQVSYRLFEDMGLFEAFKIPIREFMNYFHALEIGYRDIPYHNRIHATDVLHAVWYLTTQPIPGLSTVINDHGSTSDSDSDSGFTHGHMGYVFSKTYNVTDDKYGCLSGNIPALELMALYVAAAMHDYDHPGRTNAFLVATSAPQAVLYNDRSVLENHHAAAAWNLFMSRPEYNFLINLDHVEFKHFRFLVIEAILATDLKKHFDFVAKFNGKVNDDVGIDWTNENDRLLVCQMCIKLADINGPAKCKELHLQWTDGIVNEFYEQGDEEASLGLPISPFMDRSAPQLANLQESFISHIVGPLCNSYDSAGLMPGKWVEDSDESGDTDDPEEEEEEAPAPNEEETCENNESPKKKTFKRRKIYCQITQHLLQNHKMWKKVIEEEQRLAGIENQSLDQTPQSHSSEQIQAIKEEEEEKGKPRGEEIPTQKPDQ
Mu-type opioid receptor, sequence (P35372 whole entry): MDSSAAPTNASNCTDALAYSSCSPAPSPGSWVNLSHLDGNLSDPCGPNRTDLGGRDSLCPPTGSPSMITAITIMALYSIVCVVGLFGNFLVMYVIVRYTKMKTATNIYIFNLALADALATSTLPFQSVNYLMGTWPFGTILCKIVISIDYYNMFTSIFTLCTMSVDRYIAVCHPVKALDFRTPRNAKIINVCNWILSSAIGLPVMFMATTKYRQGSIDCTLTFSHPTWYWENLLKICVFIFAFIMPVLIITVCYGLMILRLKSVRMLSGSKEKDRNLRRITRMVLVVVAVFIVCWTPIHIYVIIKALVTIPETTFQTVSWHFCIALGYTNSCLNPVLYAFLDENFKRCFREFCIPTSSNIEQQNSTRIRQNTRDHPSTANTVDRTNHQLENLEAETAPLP
5-hydroxytryptamine receptor 2B, sequence (P41595 whole entry): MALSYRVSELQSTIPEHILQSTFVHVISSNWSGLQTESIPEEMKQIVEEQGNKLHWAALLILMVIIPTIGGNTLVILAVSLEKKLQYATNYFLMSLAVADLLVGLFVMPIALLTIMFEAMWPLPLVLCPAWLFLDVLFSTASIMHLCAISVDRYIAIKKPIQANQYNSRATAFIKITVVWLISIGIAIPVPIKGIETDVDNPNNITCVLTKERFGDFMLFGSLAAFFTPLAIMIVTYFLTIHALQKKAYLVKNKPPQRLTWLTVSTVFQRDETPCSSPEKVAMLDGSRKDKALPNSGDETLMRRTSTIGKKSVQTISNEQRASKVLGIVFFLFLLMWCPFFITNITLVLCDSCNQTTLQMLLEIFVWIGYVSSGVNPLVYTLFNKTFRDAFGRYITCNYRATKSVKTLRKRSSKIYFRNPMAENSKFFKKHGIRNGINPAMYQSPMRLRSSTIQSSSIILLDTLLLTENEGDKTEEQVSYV
Histamine H3 receptor, sequence (Q9Y5N1 whole entry): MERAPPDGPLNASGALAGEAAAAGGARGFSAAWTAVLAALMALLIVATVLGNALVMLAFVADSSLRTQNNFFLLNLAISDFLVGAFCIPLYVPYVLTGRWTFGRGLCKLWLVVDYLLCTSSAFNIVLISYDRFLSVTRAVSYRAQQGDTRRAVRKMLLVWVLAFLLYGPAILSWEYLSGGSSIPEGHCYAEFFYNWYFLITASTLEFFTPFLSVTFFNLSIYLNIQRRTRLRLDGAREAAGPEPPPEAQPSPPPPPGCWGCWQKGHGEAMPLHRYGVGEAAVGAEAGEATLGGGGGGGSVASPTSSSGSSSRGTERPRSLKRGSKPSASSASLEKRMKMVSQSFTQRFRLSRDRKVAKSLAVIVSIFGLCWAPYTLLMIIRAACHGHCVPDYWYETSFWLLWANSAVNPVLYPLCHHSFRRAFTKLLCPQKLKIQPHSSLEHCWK
Sodium-dependent dopamine transporter, sequence (Q01959 whole entry): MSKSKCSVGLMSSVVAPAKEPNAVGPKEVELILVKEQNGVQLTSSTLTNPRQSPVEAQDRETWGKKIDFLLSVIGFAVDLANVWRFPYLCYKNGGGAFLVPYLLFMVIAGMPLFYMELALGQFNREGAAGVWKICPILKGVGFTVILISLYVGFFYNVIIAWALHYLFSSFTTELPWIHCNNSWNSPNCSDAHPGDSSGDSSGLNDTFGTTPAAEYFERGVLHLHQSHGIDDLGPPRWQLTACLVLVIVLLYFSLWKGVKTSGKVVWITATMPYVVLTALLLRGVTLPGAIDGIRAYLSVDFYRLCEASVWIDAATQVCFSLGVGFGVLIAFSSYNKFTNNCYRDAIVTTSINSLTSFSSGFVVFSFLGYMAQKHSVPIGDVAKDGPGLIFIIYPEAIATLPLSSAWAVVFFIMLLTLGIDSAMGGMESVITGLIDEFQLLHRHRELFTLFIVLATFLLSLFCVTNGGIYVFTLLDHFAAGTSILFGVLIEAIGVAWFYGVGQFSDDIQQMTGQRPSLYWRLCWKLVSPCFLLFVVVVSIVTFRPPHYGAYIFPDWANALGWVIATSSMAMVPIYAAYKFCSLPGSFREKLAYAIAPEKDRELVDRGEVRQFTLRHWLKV
Prostaglandin G/H synthase 1, sequence (P23219 whole entry): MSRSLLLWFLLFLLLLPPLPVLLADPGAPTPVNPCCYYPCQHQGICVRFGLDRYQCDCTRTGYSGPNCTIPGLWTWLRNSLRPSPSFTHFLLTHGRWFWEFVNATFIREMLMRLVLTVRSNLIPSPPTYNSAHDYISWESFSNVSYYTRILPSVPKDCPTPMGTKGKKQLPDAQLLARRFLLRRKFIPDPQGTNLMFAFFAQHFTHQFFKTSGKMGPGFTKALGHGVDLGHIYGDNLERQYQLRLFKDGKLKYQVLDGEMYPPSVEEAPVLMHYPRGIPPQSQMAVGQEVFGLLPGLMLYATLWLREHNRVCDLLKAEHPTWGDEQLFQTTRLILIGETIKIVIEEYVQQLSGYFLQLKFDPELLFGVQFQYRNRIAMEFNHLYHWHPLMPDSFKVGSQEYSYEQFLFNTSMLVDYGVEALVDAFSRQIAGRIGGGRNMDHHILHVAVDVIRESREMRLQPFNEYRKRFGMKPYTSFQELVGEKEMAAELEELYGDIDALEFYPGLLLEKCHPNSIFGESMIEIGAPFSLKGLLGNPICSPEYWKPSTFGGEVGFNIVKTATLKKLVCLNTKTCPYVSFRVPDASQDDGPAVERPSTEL
Acetylcholinesterase, sequence (P22303 whole entry): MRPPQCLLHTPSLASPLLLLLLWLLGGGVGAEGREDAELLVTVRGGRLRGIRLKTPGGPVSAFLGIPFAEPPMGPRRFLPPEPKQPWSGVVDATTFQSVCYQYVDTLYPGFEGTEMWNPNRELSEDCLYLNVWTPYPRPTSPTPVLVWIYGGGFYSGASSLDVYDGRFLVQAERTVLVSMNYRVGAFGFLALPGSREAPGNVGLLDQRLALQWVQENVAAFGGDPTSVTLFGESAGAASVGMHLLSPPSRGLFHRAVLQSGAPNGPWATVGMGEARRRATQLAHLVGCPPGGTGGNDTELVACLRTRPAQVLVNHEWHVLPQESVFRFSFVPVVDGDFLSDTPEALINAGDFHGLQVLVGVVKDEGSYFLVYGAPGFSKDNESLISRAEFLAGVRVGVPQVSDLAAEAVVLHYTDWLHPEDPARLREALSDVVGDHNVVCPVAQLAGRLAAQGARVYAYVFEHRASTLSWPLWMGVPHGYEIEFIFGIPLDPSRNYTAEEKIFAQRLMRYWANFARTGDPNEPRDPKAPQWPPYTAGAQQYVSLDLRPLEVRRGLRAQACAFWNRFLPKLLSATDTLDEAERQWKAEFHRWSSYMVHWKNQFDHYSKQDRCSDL
D(1A) dopamine receptor, sequence (P21728 whole entry): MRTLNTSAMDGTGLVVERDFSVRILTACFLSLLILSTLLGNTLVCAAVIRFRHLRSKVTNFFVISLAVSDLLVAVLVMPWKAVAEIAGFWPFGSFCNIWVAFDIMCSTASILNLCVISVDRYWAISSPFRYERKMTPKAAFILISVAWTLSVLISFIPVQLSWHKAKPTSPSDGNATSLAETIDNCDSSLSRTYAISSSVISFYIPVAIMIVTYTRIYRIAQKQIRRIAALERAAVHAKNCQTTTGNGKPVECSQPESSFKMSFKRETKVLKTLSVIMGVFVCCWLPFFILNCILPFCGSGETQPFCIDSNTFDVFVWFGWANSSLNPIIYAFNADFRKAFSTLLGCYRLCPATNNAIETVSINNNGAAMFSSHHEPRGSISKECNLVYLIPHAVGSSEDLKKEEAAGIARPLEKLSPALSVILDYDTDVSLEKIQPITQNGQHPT

CCCCc1oc2ccc(NS(C)(=O)=O)cc2c1C(=O)c1ccc(OCCCN(CCCC)CCCC)cc1 [DRONEDARONE]
AC50 [1]: 2.39 µM | AC50 [2]: 28.4 µM | AC50 [3]: 3.09 µM | AC50 [4]: > 30 µM | AC50 [5]: 13.4 µM | AC50 [6]: > 30 µM | AC50 [7]: 5.4 µM | AC50 [8]: > 30 µM | AC50 [9]: 1.73 µM | AC50 [10]: 16.8 µM | AC50 [11]: > 30 µM | AC50 [12]: > 30 µM | AC50 [13]: > 30 µM | AC50 [14]: 0.64 µM

CC(C)C(=O)Oc1ccc(CO)cc1[C@H](CCN(C(C)C)C(C)C)c1ccccc1 [FESOTERODINE]
AC50 [1]: 0.414 µM | AC50 [2]: > 30 µM | AC50 [3]: > 30 µM | AC50 [4]: > 30 µM | AC50 [5]: > 30 µM | AC50 [6]: > 30 µM | AC50 [7]: > 30 µM | AC50 [8]: > 30 µM | AC50 [9]: > 30 µM | AC50 [10]: > 30 µM | AC50 [11]: > 30 µM | AC50 [12]: > 30 µM | AC50 [13]: > 30 µM | AC50 [14]: > 30 µM

N=C(N)N/N=C/c1c(Cl)cccc1Cl [GUANABENZ]
AC50 [1]: > 30 µM | AC50 [15]: > 30 µM | AC50 [2]: > 30 µM | AC50 [3]: 5.18 µM | AC50 [4]: > 30 µM | AC50 [6]: > 30 µM | AC50 [7]: 8.03 µM | AC50 [8]: > 30 µM | AC50 [9]: 12.8 µM | AC50 [10]: > 30 µM | AC50 [11]: > 30 µM | AC50 [12]: 0.0423 µM | AC50 [13]: > 30 µM | AC50 [14]: > 30 µM

C[N+](C)(CCCCCC[N+](C)(C)C1c2ccccc2-c2ccccc21)C1c2ccccc2-c2ccccc21 [HEXAFLUORENIUM]
AC50 [1]: 0.514 µM | AC50 [2]: 2.72 µM | AC50 [3]: 1.03 µM | AC50 [4]: > 30 µM | AC50 [5]: 2.19 µM | AC50 [6]: > 30 µM | AC50 [7]: 19.3 µM | AC50 [8]: > 30 µM | AC50 [9]: 4.5 µM | AC50 [10]: > 30 µM | AC50 [11]: > 30 µM | AC50 [12]: > 30 µM | AC50 [13]: 0.171 µM | AC50 [14]: > 30 µM

C[N+]1(C)CCCC(OC(=O)C(O)(c2ccccc2)c2ccccc2)C1 (stereo unspecified) [MEPENZOLATE]
AC50 [15]: 13 µM | AC50 [2]: > 30 µM | AC50 [3]: > 30 µM | AC50 [4]: > 30 µM | AC50 [5]: > 30 µM | AC50 [6]: > 30 µM | AC50 [7]: > 30 µM | AC50 [8]: > 30 µM | AC50 [9]: > 30 µM | AC50 [10]: > 30 µM | AC50 [11]: > 30 µM | AC50 [12]: > 30 µM | AC50 [13]: > 30 µM | AC50 [14]: > 30 µM

C[N+](C)(C)CCOC(=O)CCC(=O)OCC[N+](C)(C)C [SUXAMETHONIUM]
AC50 [1]: > 30 µM | AC50 [2]: > 30 µM | AC50 [3]: > 30 µM | AC50 [4]: > 30 µM | AC50 [5]: 16.6 µM | AC50 [6]: > 30 µM | AC50 [7]: > 30 µM | AC50 [8]: > 30 µM | AC50 [9]: > 30 µM | AC50 [10]: > 30 µM | AC50 [11]: > 30 µM | AC50 [12]: 0.667 µM | AC50 [13]: > 30 µM | AC50 [14]: > 30 µM

O=C1Cc2cc(CCN3CCN(c4nsc5ccccc45)CC3)c(Cl)cc2N1 [ZIPRASIDONE]
AC50 [1]: 7.14 µM | AC50 [2]: > 30 µM | AC50 [3]: 5.06 µM | AC50 [4]: > 30 µM | AC50 [6]: > 30 µM | AC50 [8]: > 30 µM | AC50 [9]: 0.0875 µM | AC50 [10]: > 30 µM | AC50 [11]: > 30 µM | AC50 [12]: > 30 µM | AC50 [13]: > 30 µM | AC50 [14]: > 30 µM
